Reference: patent US7109380B2, “Cyclopentenedione antifungal compounds and methods for their use” (The University of Mississippi, priority 2004, dated 2006)
Converted amounts (≈) assume the structure as drawn. Like-named read-outs stand apart in the source and are kept apart here.

Key:
[1] = system: Cryptococcus neoformans ATCC 90113; experiment: In vitro antifungal susceptibility testing (modified NCCLS method); type: cell-based; conditions: for MFC / MIC: ATCC90113
[2] = system: Azole-susceptible and Azole-resistant Candida albicans Strains; experiment: Antifungal activity against azole-susceptible and azole-resistant patient isolates; type: cell-based; conditions: for IC50 / IC80: Candida albicans; for Activity against fluconazole-resistant C. albicans strains (in words): isolates from patients during fluconazole therapy
Protocol: Antimicrobial Assay. Susceptibility testing is performed using a modified version of the National Committee for Clinical Laboratory Standards methods. M intracelluare is tested using a modified method of Franzblau, et al. Seventy-two to 96 h prior to the assay, the M intracellulare subculture is prepared by resuspending cells from the surface of the slant in Middlebrook 7H9 broth with OADC enrichment and incubating at 37° C. and 10% CO2. On the day of the assay, prepared samples (dissolved in DMSO) are serially-diluted using 20%/0.9% DMSO/saline and transferred in duplicate to 96 well flat bottom microplates. Candida spp. and C. neoformans inocula are prepared by picking 1–3 colonies from agar plates and resuspending in ˜5 mL 0.9% sterile saline. The absorption of 10011 of the saline suspensions and the M. intracellulare subculture at 630 nm using the EL-340 Biokinetics Reader (Bio-Tek Instruments, Vermont) is compared either the 0.5 McFarland standard of 0.03 (Mi) or standard curves. The microorganisms are diluted in broth [RPMI 1640/2% dextrose/MOPS at pH 7.3 (Cellgro) for Candida spp., Sabouraud Dextrose for C. neoformans, and 5% Alamar Blue™(BioSource International, Camarillo, Calif.) in Middlebrook 7H9 broth with OADC enrichment, pH=7.3 for M. intracellulare to afford final target inocula of: Candida spp.: 1.0×10^4, C. neoformans: 1.0×10^5, and M. intracellulare: 2.0×10^6 after addition to the samples. The microbial inocula are added to the samples to achieve a final volume of 200 μl. Growth (saline only), solvent and blank (media only) controls are included on each test plate. Drug controls [Ciprofloxacin (ICN Biomedicals, Ohio) for bacteria and Amphotericin B (ICN Biomedicals, Ohio) for fungi] are included in each assay. All organisms are read at either 630 nm using the EL-340 Biokinetics Reader (Bio-Tek Instruments, Vermont) or 544ex/590em, (M. intracellulare) using the Polarstar Galaxy Plate Reader (BMG LabTechnologies, Germany) prior to and after incubation: Candida spp. at 37° C. for 18–24 h, C. neoformans at 30° C. for 72 h, and M. intracellulare at 37° C. and 10% CO2 for 72 h. Percent growth is calculated and plotted versus test concentration to afford the IC50 (sample concentration that affords 50% growth of the organism) and the minimum inhibitory concentration (MIC) and minimum fungicidal or bactericidal concentrations (MFC/MBCs). The MIC is defined as the lowest test concentration that allows no detectable growth (for M. intracellulare no color change from blue to pink). Minimum fungicidal or bactericidal concentrations are determined by removing 5 μl from each clear (or blue) well, transferring to agar and incubating as previously mentioned. The MFC/MBC is defined as the lowest test concentration that kills 100% of the organism (allows no growth on agar).
The bioassay method is a modified version of the National Committee for Clinical Laboratory Standards methods, and is same as the one described in example 8 by which the biological data of compounds 1 and 2 (Tables 1 and 2) were obtained, except that the pH of the culture media for Candida spp. was changed from 7.3 to 4.5.

[3] = Isolate 1, azole-susceptible strain (first listing, r6)
[4] = Isolate 1, azole-susceptible strain (second listing, r10)
[5] = Isolate 2, azole-resistant strain
[6] = Isolate 5, azole-resistant strain
[7] = Isolate 8, azole-resistant strain
[8] = Isolate 17, azole-resistant strain

Which MFC ([1]; Cryptococcus neoformans ATCC 90113, Table 1, read-out: MFC (Minimum Fungicidal Concentration)) does the source give for `COC(/C=C/c1ccccc1)=C1\C(=O)C=C(C)C1=O` [Compound 1, coruscanone A] here?
The MFC was 6.25 µg/mL (≈ 24.6 µM).

And the MIC ([1]; Cryptococcus neoformans ATCC 90113, Table 1, read-out: MIC (Minimum Inhibitory Concentration))?
Its MIC is 6.25 µg/mL (≈ 24.6 µM).

What about the IC50 ([1]; Cryptococcus neoformans, ATCC90113, read-out: IC50 (50% inhibitory concentration)) of the same compound?
Its IC50 is 1.5 µg/mL (≈ 5.9 µM).

What about the MFC ([1]; Cryptococcus neoformans, Cr. neoformans ATCC 90113, Table 3, read-out: MFC) of the same compound?
The MFC was 2.5 µg/mL (≈ 9.83 µM).

And the MIC ([1]; Cryptococcus neoformans, Cr. neoformans ATCC 90113, Table 3, read-out: MIC)?
The MIC was 2.5 µg/mL (≈ 9.83 µM).

And the IC50 [2, 3]?
Its IC50 is 0.6 µg/mL (≈ 2.36 µM).

And the IC80 [2, 3]?
The IC80 was 1 µg/mL (≈ 3.93 µM).

What about the IC50 [2, 4] of the same compound?
The IC50 was 0.45 µg/mL (≈ 1.77 µM).

What about the IC80 [2, 4] of the same compound?
The IC80 was 0.6 µg/mL (≈ 2.36 µM).

What about the IC50 [2, 5] of the same compound?
The IC50 was 0.9 µg/mL (≈ 3.54 µM).

What about the IC80 [2, 5] of the same compound?
Its IC80 is 1 µg/mL (≈ 3.93 µM).

And the IC50 [2, 6]?
The IC50 was 0.4 µg/mL (≈ 1.57 µM).

And the IC80 [2, 6]?
Its IC80 is 0.6 µg/mL (≈ 2.36 µM).

And the IC50 [2, 7]?
The IC50 was 0.9 µg/mL (≈ 3.54 µM).

And the IC80 [2, 7]?
The IC80 was 1 µg/mL (≈ 3.93 µM).

What about the IC50 [2, 8] of the same compound?
Its IC50 is 0.3 µg/mL (≈ 1.18 µM).

And the IC80 [2, 8]?
Its IC80 is 0.9 µg/mL (≈ 3.54 µM).

And the IC95 [2, 3]?
The IC95 was 1.50 µg/mL (≈ 5.9 µM).

What about the IC95 [2, 4] of the same compound?
The IC95 was 0.75 µg/mL (≈ 2.95 µM).

What about the IC95 [2, 5] of the same compound?
The IC95 was 1.50 µg/mL (≈ 5.9 µM).

What about the IC95 [2, 6] of the same compound?
The IC95 was 0.70 µg/mL (≈ 2.75 µM).

And the IC95 [2, 7]?
Its IC95 is 1.50 µg/mL (≈ 5.9 µM).

And the IC95 ([2]; Isolate 17, azole-resistant strain, highest test concentration 100 μg/mL)?
Its IC95 is 1.50 µg/mL (≈ 5.9 µM).

And the “Activity against fluconazole-resistant C. albicans strains (in words)” value [2]?
The value was “retains equivalent activity relative to the susceptible strains”.

And the “Activity against fluconazole-resistant C. albicans strains (in words)” value ([2]; listed as coruscanone A)?
The value was “inhibits”.
